Test results reported in patent US6376478B1, “Pharmaceutical compositions and methods for treating anxiety, anxiety disorders and memory impairment using naaladase inhibitors” (Guilford Pharmaceuticals Inc., priority 1999, dated 2002).
pKi: −log10 of the molar value.

These molecules were tested against NAALADase (Homo sapiens, UniProt Q04609) (assay: In vitro inhibition of NAALADase activity).
Type: biochemical

Chain of NAALADase (Q04609 whole entry): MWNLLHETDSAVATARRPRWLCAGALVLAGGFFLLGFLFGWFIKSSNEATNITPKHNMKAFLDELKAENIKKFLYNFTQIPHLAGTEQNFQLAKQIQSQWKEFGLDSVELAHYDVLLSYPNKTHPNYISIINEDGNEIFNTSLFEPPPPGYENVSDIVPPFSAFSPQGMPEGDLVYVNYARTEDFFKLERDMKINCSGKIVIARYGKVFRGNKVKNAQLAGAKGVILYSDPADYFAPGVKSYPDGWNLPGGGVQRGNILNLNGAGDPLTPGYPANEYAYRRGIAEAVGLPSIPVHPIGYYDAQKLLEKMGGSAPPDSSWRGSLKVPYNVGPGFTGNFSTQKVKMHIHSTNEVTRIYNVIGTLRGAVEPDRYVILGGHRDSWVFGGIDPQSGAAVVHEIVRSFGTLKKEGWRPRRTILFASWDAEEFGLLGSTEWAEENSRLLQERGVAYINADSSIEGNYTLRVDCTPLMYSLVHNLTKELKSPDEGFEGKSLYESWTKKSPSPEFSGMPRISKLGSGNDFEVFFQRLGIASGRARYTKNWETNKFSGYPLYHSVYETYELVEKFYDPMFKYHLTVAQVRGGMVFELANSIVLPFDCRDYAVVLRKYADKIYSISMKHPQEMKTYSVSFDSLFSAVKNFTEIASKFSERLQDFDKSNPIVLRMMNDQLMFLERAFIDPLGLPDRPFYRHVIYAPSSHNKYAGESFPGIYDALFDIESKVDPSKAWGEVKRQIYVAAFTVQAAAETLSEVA

`O=C(O)CCP(=O)(O)O` and `O=C(O)CCCC(CP(=O)(O)O)C(=O)O` (centres unmarked) are within 0.2 log units of each other in pKi: 6.63 for the first, 6.73 for the second.

Going from `CP(=O)(O)CC(CCC(=O)O)C(=O)O` (centres unmarked) to `CCCCP(=O)(O)CC(CCC(=O)O)C(=O)O` (centres unmarked), the pKi rises from 5.96 to 6.94 (0.98 log units).

Compared with `O=C(O)CCC(CP(=O)(O)Cc1c(F)c(F)c(F)c(F)c1F)C(=O)O` (centres unmarked) [drawing 45], `O=C(O)CCC(CP(=O)(O)Cc1ccccc1F)C(=O)O` (centres unmarked) is 0.80 log units lower in pKi: 7.64 for the first, 6.84 for the second.

`O=C(O)CCC(CP(=O)(O)CCC(=O)O)C(=O)O` (centres unmarked) [2-[[(2-carboxyethyl)hydroxyphosphinyl]methyl]pentanedioic acid] and `CC(CP(=O)(O)CC(CCC(=O)O)C(=O)O)C(=O)O` (centres unmarked) are the same in pKi: 8.70 for the first, 8.70 for the second.

Going from `O=C(O)CCC(CP(=O)(O)CC(CCC(=O)O)C(=O)O)C(=O)O` (centres unmarked) to `O=C(O)CCC(CCSSCCC(CCC(=O)O)C(=O)O)C(=O)O` (centres unmarked) [2-[2-[(3,5-dicarboxypentyl)dithio]ethyl]pentanedioic acid], the pKi falls from 9.22 to 4.78 (4.44 log units). The first binds more tightly here.

Going from `O=C(O)CCC(CP(=O)(O)Cc1cccc(C(F)(F)F)c1)C(=O)O` (centres unmarked) to `O=C(O)CCC(CP(=O)(O)Cc1ccccc1C(F)(F)F)C(=O)O` (centres unmarked), the pKi falls from 7.66 to 7.04 (0.62 log units).

Going from `CCCCC(S)CC(CCC(=O)O)C(=O)O` (centres unmarked) [2-(2-sulfanylhexyl)pentanedioic acid] to `CC(CS)CC(CCC(=O)O)C(=O)O` (mixture of isomers) [2-(3-sulfanyl-2-methylpropyl)pentanedioic acid], the pKi rises from 5.32 to 6.62 (1.30 log units). The second binds more tightly here.

Going from `O=C(O)CCC(CP(=O)(O)C(NC(=O)O)c1ccccc1)C(=O)O` (centres unmarked) to `O=C(O)CCC(CP(=O)(O)C(NCc1ccccc1)c1ccccc1)C(=O)O` (centres unmarked), the pKi rises from 5.70 to 6.50 (0.80 log units). The second binds more tightly here.

Going from `CCC(CS)C(CCC(=O)O)C(=O)O` (centres unmarked) [2-(1-ethyl-2-sulfanylethyl)pentanedioic acid] to `CC(=O)NCP(=O)(O)CC(CCC(=O)O)C(=O)O` (centres unmarked), the pKi rises from 5.81 to 6.93 (1.12 log units).

Going from `Cc1ccc(CP(=O)(O)CC(CCC(=O)O)C(=O)O)cc1` (centres unmarked) to `O=C(O)CCC(CP(=O)(O)Cc1ccc(O)cc1)C(=O)O` (centres unmarked), the pKi falls from 7.17 to 6.93 (0.24 log units).

First: O=C(O)CCC(CC(S)c1cccc2ccccc12)C(=O)O (centres unmarked)
Second: O=C(O)CCC(CP(=O)(O)Cc1ccccc1)C(=O)O (centres unmarked)
The pKi of the first is 2.28 log units lower: 5.00 for the first, 7.28 for the second.

Compared with `O=C(O)CCC(CP(=O)(O)CC(CCC(=O)OCc1ccccc1)C(=O)OCc1ccccc1)C(=O)O` (centres unmarked), `O=C(O)CCC(CP(=O)(O)CN(Cc1ccccc1)Cc1ccccc1)C(=O)O` (centres unmarked) is 1.13 log units lower in pKi: 7.89 for the first, 6.76 for the second. The first binds more tightly here.

First: O=C(O)CCC(CP(=O)(O)Cc1ccc(OCc2ccccc2)cc1)C(=O)O (centres unmarked)
Second: O=C(O)CCC(CP(=O)(O)CNCc1ccccc1)C(=O)O (centres unmarked)
The pKi of the first is 0.53 log units lower: 6.75 for the first, 7.28 for the second. The second binds more tightly here.

First: O=C(O)CCC(CP(=O)(O)CNC(=O)c1ccccc1)C(=O)O (centres unmarked)
Second: O=C(O)CCC(CP(=O)(O)CNC(=S)Nc1ccccc1)C(=O)O (centres unmarked)
The pKi of the first is 0.27 log units lower: 6.85 for the first, 7.12 for the second. The second binds more tightly here.

Compared with `O=C(O)CCC(CP(=O)(O)CNS(=O)(=O)c1ccccc1)C(=O)O` (centres unmarked), `O=C(O)CCC(CP(=O)(O)CCCc1ccccc1)C(=O)O` (centres unmarked) is 0.42 log units lower in pKi: 7.05 for the first, 6.63 for the second. The first binds more tightly here.

First: O=C(O)CCC(CP(=O)(O)c1ccccc1)C(=O)O (centres unmarked)
Second: Cc1cccc(P(=O)(O)CC(CCC(=O)O)C(=O)O)c1 (centres unmarked)
The pKi of the first is 0.70 log units higher: 7.44 for the first, 6.74 for the second.

Compared with `COC(=O)c1ccc(CP(=O)(O)CC(CCC(=O)O)C(=O)O)cc1` (centres unmarked), `COc1ccc(NCP(=O)(O)CC(CCC(=O)O)C(=O)O)cc1` (centres unmarked) is 2.57 log units higher in pKi: 6.13 for the first, 8.70 for the second.

Going from `CC(CP(=O)(O)CC(CCC(=O)O)C(=O)O)C(=O)OCc1ccccc1` (centres unmarked) to `O=C(O)CCC(CP(=O)(O)CN1C(=O)c2ccccc2C1=O)C(=O)O` (centres unmarked), the pKi rises from 7.02 to 7.47 (0.45 log units).

First: O=C(O)CCC(CP(=O)(O)c1ccc(F)cc1)C(=O)O (centres unmarked)
Second: Cc1ccc(P(=O)(O)CC(CCC(=O)O)C(=O)O)cc1 (centres unmarked)
The pKi of the first is 0.42 log units lower: 6.27 for the first, 6.69 for the second.

Going from `O=C(O)C(CCc1ccccc1)CP(=O)(O)O` (centres unmarked) to `O=C(O)C(Cc1ccccc1)CP(=O)(O)O` (centres unmarked), the pKi falls from 6.70 to 6.26 (0.44 log units).

Going from `O=C(O)CC(CP(=O)(O)O)C(=O)O` (centres unmarked) [2-(phosphonomethyl) succinic acid] to `O=C(O)CCC(CP(=O)(O)CNc1ccc(F)cc1)C(=O)O` (centres unmarked), the pKi rises from 6.15 to 8.05 (1.90 log units).

Compared with `CC(C)(C)c1ccc(NCP(=O)(O)CC(CCC(=O)O)C(=O)O)cc1` (centres unmarked), `CC(C)(C)OC(=O)CCC(CP(=O)(CC(CCC(=O)O)C(=O)O)OC(C)(C)C)C(=O)OC(C)(C)C` (centres unmarked) is 3.33 log units lower in pKi: 8.70 for the first, 5.37 for the second. The first binds more tightly here.
